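Where inhibition never reached the appropriate level, the endpoint shown equals the highest concentration tested. Otherwise, values were interpolated linearly from a five-concentration, 48-hour dose response in 96-well plates. GI50 is the concentration that inhibits growth by half. TGI marks complete inhibition of growth.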
Columns and labels:
Test in all cases: growth of human tumour cells (NCI), 48 h
NCI-H226 lung = system: NCI-H226 lung
NCI-H23 lung = system: NCI-H23 lung
NCI-H460 lung = system: NCI-H460 lung
NCI-H522 lung = system: NCI-H522 lung
OVCAR-3 ovarian = system: OVCAR-3 ovarian
OVCAR-4 ovarian = system: OVCAR-4 ovarian
OVCAR-5 ovarian = system: OVCAR-5 ovarian
OVCAR-8 ovarian = system: OVCAR-8 ovarian
PC-3 prostate = system: PC-3 prostate
RPMI-8226 leukemia = system: RPMI-8226 leukemia
RXF 393 renal = system: RXF 393 renal
SF-268 CNS = system: SF-268 CNS
SF-295 CNS = system: SF-295 CNS
SF-539 CNS = system: SF-539 CNS
SK-MEL-2 melanoma = system: SK-MEL-2 melanoma
SK-MEL-28 melanoma = system: SK-MEL-28 melanoma
SK-MEL-5 melanoma = system: SK-MEL-5 melanoma
SK-OV-3 ovarian = system: SK-OV-3 ovarian
SN12C renal = system: SN12C renal
SNB-19 CNS = system: SNB-19 CNS
SNB-75 CNS = system: SNB-75 CNS
SR leukemia = system: SR leukemia
SW-620 colon = system: SW-620 colon
T-47D breast = system: T-47D breast
TK-10 renal = system: TK-10 renal
U251 CNS = system: U251 CNS
UACC-257 melanoma = system: UACC-257 melanoma
UACC-62 melanoma = system: UACC-62 melanoma
UO-31 renal = system: UO-31 renal

## CN1CCN(c2ccc(C(=O)/C=C/c3cc(Br)ccc3F)cc2)CC1
NCI-H226 lung
  GI50: 12.7 µM
  TGI: 27.3 µM
NCI-H23 lung
  GI50: 13.5 µM
  TGI: 27.3 µM
NCI-H460 lung
  GI50: 15.6 µM
  TGI: 31.1 µM
NCI-H522 lung
  GI50: 13.5 µM
  TGI: 27.1 µM
OVCAR-3 ovarian
  GI50: 5.81 µM
  TGI: 18.2 µM
OVCAR-4 ovarian
  GI50: 11.3 µM
  TGI: 23.9 µM
OVCAR-5 ovarian
  GI50: 18.6 µM
  TGI: 35.9 µM
OVCAR-8 ovarian
  GI50: 13.2 µM
  TGI: 26 µM
PC-3 prostate
  GI50: 6.24 µM
  TGI: 21.3 µM
RPMI-8226 leukemia
  GI50: 1.84 µM
  TGI: 6.07 µM
RXF 393 renal
  GI50: 1.27 µM
  TGI: 13.7 µM
SF-268 CNS
  GI50: 15.1 µM
  TGI: 31.6 µM
SF-295 CNS
  GI50: 15.2 µM
  TGI: 28.7 µM
SF-539 CNS
  GI50: 7.05 µM
  TGI: 21.7 µM
SK-MEL-2 melanoma
  GI50: 14.5 µM
  TGI: 27.6 µM
SK-MEL-28 melanoma
  GI50: 19.7 µM
  TGI: 36.2 µM
SK-MEL-5 melanoma
  GI50: 12.9 µM
  TGI: 25.7 µM
SK-OV-3 ovarian
  GI50: 14.7 µM
  TGI: 28.6 µM
SN12C renal
  GI50: 11.2 µM
  TGI: 27.2 µM
SNB-19 CNS
  GI50: 15.1 µM
  TGI: 29.5 µM
SNB-75 CNS
  GI50: 3.25 µM
  TGI: 16.6 µM
SR leukemia
  GI50: 2.58 µM
  TGI: 10.7 µM
SW-620 colon
  GI50: 3.52 µM
  TGI: 14.2 µM
T-47D breast
  GI50: 15 µM
  TGI: 47.3 µM
TK-10 renal
  GI50: 15 µM
  TGI: 28.3 µM
U251 CNS
  GI50: 5.91 µM
  TGI: 18.9 µM
UACC-257 melanoma
  GI50: 15.5 µM
  TGI: 29.5 µM
UACC-62 melanoma
  GI50: 15.1 µM
  TGI: 29.9 µM
UO-31 renal
  GI50: 8.55 µM
  TGI: 21.5 µM

From PubChem BioAssay (NCI)
